Assay results: article PMC6331909, “Identification of Eupatilin from Artemisia argyi as a Selective PPARα Agonist Using Affinity Selection Ultrafiltration LC-MS” (Molecules, 2015)
One block for each compound: values may come before it.

Experiments:
PPARα [1] = molecular target: T1, PPARα (Homo sapiens, UniProt Q07869); assay: TR-FRET competitive binding assay
T1 construct: gene PPARA
T1 sequence (Q07869 196-468 limits assumed): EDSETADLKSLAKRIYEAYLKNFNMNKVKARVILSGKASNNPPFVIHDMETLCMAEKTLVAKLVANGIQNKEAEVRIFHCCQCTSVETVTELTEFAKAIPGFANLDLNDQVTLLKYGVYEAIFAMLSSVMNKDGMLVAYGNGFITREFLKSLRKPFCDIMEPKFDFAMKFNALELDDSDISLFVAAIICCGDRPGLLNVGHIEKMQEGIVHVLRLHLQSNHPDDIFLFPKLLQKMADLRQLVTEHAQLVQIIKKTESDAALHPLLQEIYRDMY

PPARγ = molecular target: T2, PPARγ (Homo sapiens, UniProt P37231); assay: TR-FRET competitive binding assay
T2 construct: gene PPARG
T2 sequence (P37231 232-505 limits assumed): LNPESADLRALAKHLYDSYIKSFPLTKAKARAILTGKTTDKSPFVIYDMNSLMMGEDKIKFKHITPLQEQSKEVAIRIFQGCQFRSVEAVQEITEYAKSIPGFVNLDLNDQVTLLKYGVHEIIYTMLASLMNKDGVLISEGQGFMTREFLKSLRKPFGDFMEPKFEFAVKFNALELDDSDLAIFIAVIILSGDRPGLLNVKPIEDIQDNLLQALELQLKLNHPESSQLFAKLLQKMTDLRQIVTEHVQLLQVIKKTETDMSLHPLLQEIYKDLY

PPARα [2] = molecular target: T1, PPARα; assay: TR-FRET competitive binding assay; also ultrafiltration LC-MS and cell transactivation

IC50 (PPARα [1]): 227 nM
Compound: CCC(=O)NC[C@H](Cc1ccc(OCCc2nc(-c3ccccc3)oc2C)cc1)N/C(C)=C\C(=O)c1ccc(C(F)(F)F)cc1 [GW6471]

Compound: O=C(Nc1ccccc1)c1cc([N+](=O)[O-])ccc1Cl [GW9662]
IC50 (PPARγ): 24.3 nM

IC50 (PPARα [2]): 1180 nM
Compound: COc1ccc(-c2cc(=O)c3c(O)c(OC)c(O)cc3o2)cc1OC [eupatilin]
